Measured values: paper PMC5760531, “Action Potential Recording and Pro-arrhythmia Risk Analysis in Human Ventricular Trabeculae” (Frontiers in Physiology, 2018)
“And” between values parts separate entries of the source, which are not always exact repeats. Equal entries are not always repeated.

How the values were obtained:
[1] = tested on: human ventricular trabeculae; assay: Action potential recording and pro-arrhythmic score analysis in human ventricular trabeculae (hVT); settings: for EAD induction: any testing concentration, 1 and 2 Hz;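 as to all read-outs here: sharp microelectrode action potential recordings at 37°C in Tyrode-perfused trabeculae, 4 cumulative concentrations each applied 31 min, values averaged over last 30 APs, vehicle 0.1% DMSO as control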
Experimental: Briefly, the human heart was transferred into a dissection vessel containing a cold (4°C), fresh proprietary dissection solution. The heart was maintained completely submerged in dissection solution. Ventricular trabeculae were dissected and transferred to the recording chamber.
Briefly, a single tissue was mounted into the experimental chamber filled with oxygenated Tyrode's external solution. The temperature of the solution was maintained at 37°C with flow rate at 5 mL per minute. The tissue was allowed to equilibrate for 30–60 min with stimulation (3 V, 3 ms) at a frequency of 1.0 Hz. High impedance borosilicate microelectrodes were prepared with a tip resistance of 10–20 MΩ once filled with 3 M KCl. Upon tissue impalement, the membrane potential was allowed to stabilize (typically, around −85 mV). Tissues with resting membrane potentials more positive than −75 mV were rejected. Bipolar stimulation at 1.5x threshold was applied and recordings were performed in continuous mode with sampling at 20 kHz using ADInstruments and LabChart Software.
Interruption of perfusion/oxygenation; (2). Absence of Aps following stimulation at baseline; (3). Time frame of drug exposure not respected; (4). Unstable response to stimulation at baseline; (5). Resting membrane potential (RMP) > −75 mV; 7). Maximal amplitude of AP (AMAX) <70 mV; 8). AP duration at 90% repolarization (APD90) <200 ms or >450 ms.
Experimental Procedure: Each test article was evaluated at 4 concentrations in 4 ventricular trabeculae derived from a minimum of 2 donor hearts. Testing concentrations were chosen based upon human free ETPC, aiming to cover 1–100-fold of human free ETPC. […] Briefly, following stabilization of each tissue, APs were collected and assessed for 31 min in vehicle control solution (Tyrode with 0.1% DMSO) at stimulation frequencies of 1 Hz for 25 min, 2 Hz for 3 min and then 1 Hz for 3 min. Following this vehicle control period, 4 concentrations of a test compound were applied sequentially and cumulatively. Each concentration was applied for 31 min with the same stimulation sequence as in vehicle controls.
For each frequency tested, the last 30 APs acquired at the end of the period were averaged for vehicle controls and for each test article concentration. Analysis at 1 Hz included only the last 30 APs of the initial 25-min incubation period. The following AP parameters and pro-arrhythmia variables were analyzed offline upon the completion of recordings:
• RMP (mV) • AMAX (mV) • AP duration at percent repolarization (APD20, APD30, APD50, APD60, APD90) (ms) • Short term variability analysis of AP duration (STV): Beat-to-beat variability of repolarization was quantified as STV from APD90 Poincare plots over a period of 30 sec.
Compound effects were quantified relative to the data collected during the vehicle control period (see Figure 1). […] Additionally, based on AnaBios historical data, threshold values for changes over baseline control for AP instability, APD alternans, Maximum APD dispersion and ERP (APD) were based upon an effect level of 10%. When applicable, differences were tested for statistical significance using the unpaired Student's t-test. A value of P < 0.05 was considered significant.
AP parameters and pro-arrhythmia variables were combined into a meaningful, single score to assess the pro-arrhythmic risk of a compound at each concentration tested. The pro-arrhythmic potential of compounds at 1 or 2 Hz was determined by assigning a weighted scale to each variable (Table 1).

[2] = human free (unbound) effective therapeutic plasma concentration used to calculate multiples; cited from earlier work
[3] = 1Hz, c1-c4: 0.4-, 1.3-, 13-, 43-FOLD free ETPC (2.3µM)
[4] = 2Hz, c1-c4: 0.4-, 1.3-, 13-, 43-FOLD free ETPC (2.3µM)
[5] = average raw data, 1Hz, c2-c5: 0.4-, 1.3-, 13-, 43-FOLD free ETPC (2.3µM)
[6] = average raw data, 2Hz, c2-c5: 0.4-, 1.3-, 13-, 43-FOLD free ETPC (2.3µM)
[7] = 1Hz, c1-c4: 2-FOLD, 21-FOLD, 69-OLD, 207-FOLD free ETPC (0.145µM)
[8] = 2Hz, c1-c4: 2-FOLD, 21-FOLD, 69-OLD, 207-FOLD free ETPC (0.145µM)
[9] = average raw data, 1Hz, c2-c5: 2-FOLD, 21-FOLD, 69-OLD, 207-FOLD free ETPC (0.145µM)
[10] = average raw data, 2Hz, c2-c5: 2-FOLD, 21-FOLD, 69-OLD, 207-FOLD free ETPC (0.145µM)
[11] = initial 3 testing concentrations
[12] = 1Hz, c1-c4: 25-, 75-, 250-, 2500-FOLD free ETPC (0.0004µM)
[13] = 2Hz, c1-c4: 25-, 75-, 250-, 2500-FOLD free ETPC (0.0004µM)
[14] = average raw data, 1Hz, c2-c5: 25-, 75-, 250-, 2500-FOLD free ETPC (0.0004µM)
[15] = average raw data, 2Hz, c2-c5: 25-, 75-, 250-, 2500-FOLD free ETPC (0.0004µM)

COc1ccccc1OCC(O)CN1CCN(CC(=O)Nc2c(C)cccc2C)CC1 (stereo not shown) [RANOLAZINE, Ranolazine]
EADs incidence [1, 3]: 0% | Refractoriness Escape incidence [1, 3]: 0% | EADs incidence [1, 4]: 0% | Refractoriness Escape incidence [1, 4]: 0% | AMAX [1, 5]: 112 mV and 111 mV and 113 mV and 109 mV | APD30 [1, 5]: 146 ms and 136 ms and 126 ms and 116 ms | APD50 [1, 5]: 198 ms and 187 ms and 181 ms and 170 ms | APD90 [1, 5]: 266 ms and 257 ms and 274 ms and 294 ms | Alternans [1, 5]: 0.34 and 0.37 and 0.39 | EADs [1, 5]: 0 | ERP [1, 5]: 0.47 and 0.48 and 0.50 and 0.49 | Max Dispersion [1, 5]: 1.65 and 1.42 and 1.45 and 1.75 | Refractoriness Escape [1, 5]: 0 | STV [1, 5]: 0.22 and 0.27 and 0.29 and 0.24 | Triangulation [1, 5]: 121 and 148 and 178 | AMAX [1, 6]: 111 mV and 105 mV | APD30 [1, 6]: 108 ms and 102 ms and 99 ms and 104 ms | APD50 [1, 6]: 151 ms and 144 ms and 143 ms | APD90 [1, 6]: 215 ms and 210 ms and 230 ms and 275 ms | EADs [1, 6]: 0 | ERP [1, 6]: 0.48 and 0.49 and 0.47 | Refractoriness Escape [1, 6]: 0 | Triangulation [1, 6]: 107 and 108 and 131 and 172 | Free ETPC [2]: 2.3 µM

CC(CC(c1ccccc1)c1ccccc1)NC(C)(C)C (stereo not shown) [TERODILINE, Terodiline]
EADs incidence [1, 7]: 0% | Refractoriness Escape incidence [1, 7]: 0% | EADs incidence [1, 8]: 0% | Refractoriness Escape incidence [1, 8]: 0% | STV ([1]; 2 Hz, first concentration): 0.9 | STV ([1]; 2 Hz, third concentration): 2.2 | STV increase ([1]; 2 Hz, third versus first concentration): 144% | EAD induction [1]: did not induce EAD | AMAX [1, 9]: 111 mV and 110 mV and 108 mV and 102 mV | APD30 [1, 9]: 151 ms and 142 ms and 126 ms and 113 ms | APD50 [1, 9]: 200 ms and 192 ms and 178 ms and 164 ms | APD90 [1, 9]: 270 ms and 268 ms and 293 ms | Beat Escape [1, 9]: 1 | EADs [1, 9]: 0 | ERP [1, 9]: 0.44 and 0.45 and 0.48 and 0.49 | Refractoriness Escape [1, 9]: 0 | Triangulation [1, 9]: 119 and 126 and 144 and 180 | AMAX [1, 10]: 109 mV and 108 mV and 106 mV and 100 mV | APD30 [1, 10]: 115 ms and 108 ms and 100 ms and 104 ms | APD50 [1, 10]: 157 ms and 150 ms and 140 ms and 151 ms | APD90 [1, 10]: 225 ms and 223 ms and 228 ms and 276 ms | Beat Escape [1, 10]: 1 | EADs [1, 10]: 0 | ERP [1, 10]: 0.45 and 0.47 and 0.48 | Refractoriness Escape [1, 10]: 0 | Triangulation [1, 10]: 110 and 115 and 128 and 172 | effect on amplitude of AP ([1]; especially at 30 μM): decreased the amplitude of AP | change in APD90 [1, 11]: less than 10% | change in triangulation [1, 11]: ≥ 20% | Free ETPC [2]: 0.145 µM

Cc1ccc(O)c([C@H](CCN(C(C)C)C(C)C)c2ccccc2)c1 [TOLTERODINE, Tolterodine]
Beat Escape incidence [1, 12]: 0% | EADs incidence [1, 12]: 0% | Refractoriness Escape incidence [1, 12]: 0% | Beat Escape incidence [1, 13]: 0% | EADs incidence [1, 13]: 0% | Refractoriness Escape incidence [1, 13]: 0% | EAD induction [1]: did not induce EAD | AMAX [1, 14]: 110 mV and 113 mV and 107 mV and 112 mV | APD30 [1, 14]: 186 ms and 190 ms and 192 ms and 195 ms | APD50 [1, 14]: 248 ms and 256 ms and 279 ms and 294 ms | APD90 [1, 14]: 320 ms and 331 ms and 378 ms and 411 ms | Alternans [1, 14]: 0.39 and 0.41 and 0.53 and 0.63 | Beat Escape [1, 14]: 0 | EADs [1, 14]: 0 | ERP [1, 14]: 0.46 and 0.47 and 0.53 and 0.55 | Max Dispersion [1, 14]: 2.33 and 1.97 and 2.80 and 2.90 | Refractoriness Escape [1, 14]: 0 | STV [1, 14]: 0.32 and 0.28 and 0.38 and 0.40 | Triangulation [1, 14]: 134 and 141 and 186 and 215 | AMAX [1, 15]: 107 mV and 113 mV and 106 mV | APD30 [1, 15]: 131 ms and 143 ms and 136 ms and 134 ms | APD50 [1, 15]: 184 ms and 197 ms and 203 ms and 210 ms | APD90 [1, 15]: 254 ms and 268 ms and 299 ms and 327 ms | Beat Escape [1, 15]: 0 | EADs [1, 15]: 0 | ERP [1, 15]: 0.49 and 0.48 and 0.54 and 0.56 | Max Dispersion [1, 15]: 2.38 and 2.93 and 4.08 and 4.05 | Refractoriness Escape [1, 15]: 0 | Triangulation [1, 15]: 123 and 126 and 163 and 193 | effect on amplitude of AP ([1]; up to the highest testing concentration, 1 μM): negligible effects | Free ETPC [2]: 0.0004 µM
